Measured values: patent US20150192589A1, “METHOD USING FLUORESCENT TURN-ON PROBES FOR CELL-SPECIFIC DETECTION” (Agency for Science, Technology and Research, priority 2014, published 2015)

Tests used:
esterase in MCF-7 cells = assay: Esterase activity in living cells by Lyso-1 fluorescence imaging after inhibitor pretreatment; format: cell-based; conditions: MCF-7 cells pretreated with 0.4 mM
Description: (§1) For example, the addition of 0.1 mM AEBSF causes a fluorescence decrease in 10% at 532 nm compared with that without AEBSF. The higher concentrations of AEBSF such as 0.4 and 1.0 mM lead to larger fluorescence decrease of 40% and 65%, respectively. […] Thus, the probe Lyso-1 has a use to screen inhibitors of esterase.

esterase [1] = assay: Effect of esterase inhibitor on esterase activity (Lyso-1 fluorescence readout); format: biochemical; conditions: Lyso-1 10 μM, esterase 0.50 U mL^−1
Description: as §1

lysosomes of MCF-7 cells = assay: In situ imaging of lysosomal esterase / colocalization with LysoTracker Red; format: cell-based
Description: FIGS. 9A-9H show the colocalization imaging of MCF-7 cells stained with 1.0 μM Lyso-1 and 50 nM LysoTracker®-red for 30 min at 37° C. (FIG. 9A and FIG. 9E) Bright-field image. (FIG. 9B and FIG. 9F) Confocal image from Lyso-1 on channel 1 (λex=405 nm, λem=515-560 nm). (FIG. 9C and FIG. 9G) Confocal image from LysoTracker® Red on channel 2 (λex=559 nm, λem=585-610 nm). (FIG. 9D and FIG. 9H) Merged image of channels 1 and 2. Scale bar=20 μm.
A discrete labeling pattern that matched the distribution of lysosomes was obtained using Lyso-1 (FIG. 9a-d). […] To verify that the probes can selectively target lysosomes, the probe 6 without of lysosome targeting morpholines was also tested for cell imaging as a comparison. […] These experiments clearly verified that Lyso-1 can selectively target lysosome.
MCF-7 cells were seeded at a density of 2×10^4/well in the chamber (LAB-TEK, Chambered Coverglass System) and grown for 18 h at 37° C. in a humidified 5% CO2 incubator. The cells were washed twice with 1×PBS buffer and 0.3 mL fresh serum-free medium containing 1.0 μM Lyso-1 solution was then added to the chamber.
For co-staining between Lyso-1 and LysoTracker® Red, the MCF-7 cells were first incubated with 1.0 μM Lyso-1 solution for 2 h, and then the cells were rinsed and incubated in the medium containing 100 nM Lyso-tracker Red for 1 h.
Lyso-1 was excited at 405 nm (1% laser power) and the fluorescence was collected at 515-560 nm; LysoTracker® Red was excited at 560 nm (18% laser power) and fluorescence was collected at 581-688 nm.

[2] = system: lysosomal esterase in MCF-7 cells; assay: Real-time fluorescence imaging of lysosomal esterase activity; format: cell-based
Description: As the incubation time elapses, the fluorescence intensity increases quickly which reaches a maximum at 8 min. The real-time fluorescence images shown in FIG. 12 indicate that the probe is non-fluorescent in the cell culture media.
[…] The intensity images of Lyso-1 were recorded with the emission in the range of 515-560 nm. Excitation wavelength: 405 nm.

[3] = Photostability by continuous confocal scanning of stained cells; format: physicochemical; conditions: approximately 8 min continuous confocal scanning, stained MCF-7 cells; Lyso-1 1 μM, LysoTracker Red 50 nM
Description: FIGS. 10A-10E show (FIG. 10E) Signal loss (%) of fluorescent emission of Lyso-1 (1 μM) and LysoTracker® Red (50 nM) with increasing time. Excitation wavelength: 405 nm (for Lyso-1) and 560 nm (for LysoTracker® Red); emission filter: 515-560 nm (for Lyso-1) and 581-688 nm (for LysoTracker® Red); (FIGS. 10A-10D) fluorescent images of living MCF-7 cells stained with Lyso-1(1 μM) and LysoTracker® Red (50 nM) at 0 and 5 min.
It has been shown that the signal loss of Lyso-1 is less than 20% in approximately 8 min. In contrast, LysoTracker® Red lost almost approximately 70% of its fluorescence signal.
For Photostability study, MCF-7 cells were stained with 1.0 μM Lyso-1 and LysoTracker® Red for 1 h at 37° C. under 5% CO2. The changes of fluorescence intensity with scan time were determined by CLSM (Zeiss LSM 410, Jena, Germany).
Excitation wavelength: 405 nm (for Lyso-1, 1% laser power) and 560 nm (for LysoTracker® Red, 18% laser power); emission filter: 515-560 nm (for Lyso-1) and 581-688 nm (for LysoTracker® Red). The data were obtained from replicate experiments (n=3).

mitochondria = assay: Mitochondria imaging; format: cell-based
Description: FIGS. 30A-30C show Colocalization imaging of Hela cells stained with 5.0 μM MitoGreen-2 and 50 nM MitoTracker®-red.
MitoGreen-1 and MitoGreen-2 can be easily modified by adding further reactive groups to detect certain enzymes or bioactive molecules.

β-galactosidase = assay: Hydrolysis of probe by β-galactosidase (fluorescence turn-on); format: biochemical; conditions: KH2PO4 buffer pH 4.5, 30° C., excitation 365 nm, emission 542 nm
Description: Excited at 365 nm. Fluorescence intensity was measured at 542 nm.
After reaction of the probe with β-galactosidase, compound 9 is obtained.

[4] = Photoluminescence / AIE properties in solvent-water mixtures; format: physicochemical
Text: At ˜532 nm, there is almost no fluorescence for Lyso-1, whereas a strong emission with a 200-fold enhancement is observed for 2 from the keto tautomer ([…]). The weak emission at a short wavelength (λmax=˜441 nm) is from the enol tautomer of 2 (FIG. 1). It is noted that there is almost no overlap between the absorption and emission spectrum for salicyladazine dye 2, which is highly desirable for imaging applications.
With gradual addition of water into THF from fw=0 to 80 vol %, the emission intensity keeps slow increasing. […] At fw=99 vol %, a 14-fold enhancement of emission has been observed as compared to that in THF, showing an obvious AIE effect.
(§2) The UV-vis absorption spectra were obtained using UV-vis spectrometer (Shimadzu, UV-1700, Japan). PL measurements were carried out on a Perkin-Elmer LS-55 equipped with a xenon lamp excitation source and a Hamamatsu (Japan) 928 PMT, using 90° angle detection for solution samples. The cells were imaged by fluorescence microscope (Nikon Al Confocal microscope). The time-dependence fluorescence scans of Lyso-1 were conducted with microplate reader (TECAN). ^1H and ^13C NMR spectra were measured on a Bruker ARX 400 NMR spectrometer. The molecular mass was acquired using ion trap-time-of-flight mass spectrometry (MS-IT-TOF) (Shimadzu).

[5] = system: MCF-7 breast cancer cells; assay: Cell viability by MTT assay; format: cell-based; conditions: 1, 2, 4, 8, or 16 μM for 24 h
Description: The samples were incubated with 1, 2, 4, 8, or 16 μM Lyso-1 for 24 h, and the cell viabilities are close to 100% under the testing conditions, indicative of low cytotoxicity of the probe.
MCF-7 cancer cells were seeded in 96-well plates at a density of 4×10^4 cells/mL. After 24 h incubation, the cells were exposed to a series of doses of the probe Lyso-1 at 37° C. After the designated time intervals, the sample wells were washed twice with 1×PBS buffer and freshly prepared MTT solution (0.5 mg/mL, 100 μL) in culture medium was added into each sample well. The MTT medium solution was carefully removed after 3 h incubation in the incubator for the sample wells, whereas the control wells without addition of MTT solution were washed twice with 1×PBS buffer. DMSO (100 μL) was then added into each well and the plate was gently shaken for 10 min at room temperature to dissolve all the precipitates formed. The absorbance of individual wells at 570 nm was then monitored by the microplate Reader. The absorbance of MTT in the sample well was determined by the differentiation between the absorbance of the sample well and that of the respective control well. Cell viability was expressed by the ratio of the absorbance of MTT in the sample wells to that of the cells incubated with culture medium only.

esterase [6] = assay: Selectivity of Lyso-1 fluorescence response, esterase versus interference substances; format: biochemical; conditions: Lyso-1 10 μM; esterase 0.50 U mL^−1 vs MgCl2, CaCl2, vitamin C, H2O2, BO3−, lysozyme, cathepsin B; PBS pH 7.4, 37° C.
esterase [7] = assay: Fluorescence response of Lyso-1 upon incubation with esterase; format: biochemical
Description: The measurements were performed in 10 mM PBS (pH 7.4) with λex/em=356/532 nm.
For esterase at 0.50 U mL^−1, the fluorescence increase could reach a plateau in 15 min, which is sigmoidal in shape due to the two-stepwise sequential hydrolysis of Lyso-1 to 2. The fluorescence could only be fully generated after the two-step reaction completed and formation of intramolecular hydrogen bonds. […] The detection limit (3 S/m, in which S is the standard deviation of blank measurements, and m is the slope of the linear equation) is determined to be 2.4×10-3 U mL^−1.
as §2

NCCc1ccc(S(=O)(=O)F)cc1 [AEBSF, 4-(2-aminoethyl)benzenesulfonyl fluoride]
Lyso-1 fluorescence in pretreated cells (esterase in MCF-7 cells): obviously decreased fluorescence | fluorescence decrease at 532 nm compared with that without AEBSF (esterase [1]; 0.1 mM AEBSF): 10% | fluorescence decrease at 532 nm compared with that without AEBSF (esterase [1]; 0.4 mM AEBSF): 40% | fluorescence decrease at 532 nm compared with that without AEBSF (esterase [1]; 1.0 mM AEBSF): 65%

CC(=O)Oc1cc(OCCCCBr)ccc1/C=N/N=C/c1ccc(OCCCCBr)cc1OC(C)=O [compound 6, ((1E,1′E)-hydrazine-1,2-diylidenebis(methanylylidene))bis(3-(4-bromobutoxy)-6,1-phenylene) diacetate]
fluorescence of cells (lysosomes of MCF-7 cells; MCF-7 cells incubated with 1.0 μM for 2 h): Very weak fluorescence | staining pattern of cells (lysosomes of MCF-7 cells; MCF-7 cells incubated with 5.0 μM): non-specific staining of the entire cell | time after which probe turns on in the entire cells ([2]; 5 μM): 2 h

CN(C)CCNC(=O)CCc1ccc2n1[B-](F)(F)[N+]1=C(c3ccc[nH]3)C=CC1=C2 [LysoTracker® Red, reference compound]
signal loss of fluorescent emission [3]: approximately 70%

Oc1cc(OCCCCCC[P+](c2ccccc2)(c2ccccc2)c2ccccc2)ccc1/C=N/N=C/c1ccc(OCCCCCC[P+](c2ccccc2)(c2ccccc2)c2ccccc2)cc1O.[Br-].[Br-] [MitoGreen-1, (((((1E,1′E)-hydrazine-1,2-diylidenebis(methanylylidene))bis(3-hydroxy-4,1-phenylene))bis(oxy))bis(hexane-6,1-diyl))bis(triphenylphosphonium) bromide]
binding to mitochondria (mitochondria): bind well to mitochondria

OCC1O[C@@H](Oc2ccccc2/C=N/N=C/c2ccccc2OC2O[C@H](CO)[C@H](O)[C@H](O)[C@H]2O)C(O)C(O)C1O (stereo in doubt) [β-gal-1, (2S,3S,4R,5S,6S)-2-(hydroxymethyl)-6-(2-((E)-((E)-(2-(((2R,3R,4S,5R,6R)-3,4,5-trihydroxy-6-(hydroxymethyl)tetrahydro-2H-pyran-2-yl)oxy)benzylidene)hydrazono)methyl)phenoxy)tetrahydro-2H-pyran-3,4,5-triol]
fluorescence upon reaction with β-galactosidase (β-galactosidase): leads to fluorescence

Oc1cc(OCCCCN2CCOCC2)ccc1/C=N/N=C/c1ccc(OCCCCN2CCOCC2)cc1O [compound 2, 6,6′-((1E,1′E)-hydrazine-1,2-diylidenebis(methanylylidene))-bis(3-(4-morpholinobutoxy)-phenol)]
quantum yield of keto tautomer emission (printed "0=") ([4]; 10 μM in DMSO/water (1:99 v/v), ~532 nm): 9.6% | emission enhancement at ~532 nm compared with Lyso-1 ([4]; 10 μM in DMSO/water (1:99 v/v), λex=356 nm, keto tautomer emission): 200 fold | enhancement of emission at fw=99 vol % compared to that in THF (AIE effect) ([4]; THF/water, 10 μM, excitation 356 nm): 14 fold

Oc1cc(OCCCCCC[n+]2ccccc2)ccc1/C=N/N=C/c1ccc(OCCCCCC[n+]2ccccc2)cc1O.[Br-].[Br-] [MitoGreen-2, 1,1′-(((((1E,1′E)-hydrazine-1,2-diylidenebis(methanylylidene))bis(3-hydroxy-4,1-phenylene))bis(oxy))bis(hexane-6,1-diyl))bis(pyridin-1-ium) bromide]
binding to mitochondria (mitochondria): bind well to mitochondria

CC(=O)Oc1cc(OCCCCN2CCOCC2)ccc1/C=N/N=C/c1ccc(OCCCCN2CCOCC2)cc1OC(C)=O [Lyso-1, ((1E,1′E)-hydrazine-1,2-diylidenebis(methanylylidene))bis(3-(4-morpholinobutoxy)-6,1-phenylene) diacetate]
signal loss of fluorescent emission [3]: less than 20% | overlap between fluorescence images of probe and LysoTracker Red (lysosomes of MCF-7 cells; MCF-7 cells, 1.0 μM probe, no washing): excellent overlap | cell viability [5]: ~100% | incubation time at which fluorescence intensity reaches a maximum ([2]; 1.0 μM, room temperature): 8 min | fluorescence induced by esterase relative to interferences (times brighter) (esterase [6]): 70-200 times | fluorescence change without esterase (stability of the probe) (esterase [7]; control without esterase, same period of time, PBS pH 7.4): hardly changes | time for fluorescence increase to reach a plateau (esterase [7]; esterase 0.50 U mL^−1, Lyso-1 10 μM, 10 mM PBS pH 7.4): 15 min
